Experimental data taken from patent US20210337789A1, “Derivatives of m-Guaiacol, Their Preparation and Their Uses” (Universite de Caen Normandie, priority 2018, published 2021).

How the values were obtained:
[1] = tested on: Klebsiella pneumoniae; assay: Bacterial growth screening on wild-type phenotype strain, K. pneumoniae; type: cell-based
Protocol: (§1) The bacterial growth is evaluated by measuring the optical density (DO) at 600 nm using NanoDrop.
(§2) This ratio permits a classification of the molecules in 4 effect levels: • 0=no effect observed; • 1=effect observed only when the molecule is tested pure; • 2=effect observed at several concentrations, but which gradually decreases the dilutions; • 3=strong effect observed at each concentration of molecule tested.
(§3) A screening of molecules of the invention on several wild-type phenotype strains has been carried out.
(§4) The strains initially selected are: • Gram+: Streptococcus equi subsp zooepidemicus and Staphylococcus aureus • Gram−: Escherichia coli, Klebsiella pneumoniae and Stenotrophomonas maltophila.

[2] = tested on: Staphylococcus aureus; assay: Bacterial growth screening on wild-type phenotype strain, S. aureus; type: cell-based
Protocol: as §1, §2, §3, §4

[3] = tested on: Escherichia coli; assay: Bacterial growth screening on wild-type phenotype strain, E. coli; type: cell-based
Protocol: as §1, §2, §3, §4

[4] = tested on: KB cells (epidermoid carcinoma); assay: In vitro cytotoxicity, cell proliferation test (MTS) on KB cells; type: cell-based; settings: Homo sapiens, KB cells, triplicate, 72 hours of exposure, with respect to DMSO control, read-out: percentage of inhibition of cell growth
Protocol: The human cell strain KB (epidermoid carcinoma) was obtained from the NCI (National Cancer Institute) and cultivated in the D-MEM medium added with 10% of foetal bovine serum (Invitrogen) in the presence of penicillin, streptomycin and fungizone in flasks of […] under CO2 at 5%. The cells were deposited on tissue culture microplates with 96 wells and a density of 650 cells/well in 200 μl of medium and treated 24 hours later with compounds of the invention dissolved in DMSO at concentrations going from 0.5 nM to 10 μM using a Biomek 3000 (Beckman-Coulter) automaton. The controls received the same volume of DMSO (1% of final volume). After 72 hours of exposure, the MTS reagent (Celltiter 96Aqueous One solution, Promega) was added and incubated for 3 hours at 37° C.: the absorbance was measured at 490 nm and the results of inhibition of the cell proliferation were calculated according to the ratio [(1−(OD490treated/OD490control))×100].
Results: Cytotoxicity at 10^−5 and 10^−6M on Triplicate KB Cells, Measured after 72 Hours of Exposure.
The percentage of inhibition of cell growth with respect to the cells receiving the same quantity of DMSO is outlined in the table below.

[5] = tested on: Stenotrophomonas maltophila; assay: Bacterial growth screening on wild-type phenotype strain, S. maltophila; type: cell-based
Protocol: as §1, §2, §3, §4

[6] = tested on: S. aureus strains presenting high levels of resistance; assay: Bacterial growth on S. aureus strains presenting high levels of resistance; type: cell-based, Staphylococcus aureus; design: key to Effects (0 < 1 < 2 < 3): 0 = no effect; 1 = pure only; 2 = several concs; 3 = strong at each; key to Δ DO: change in optical density measured at 600 nm; settings: for Effects (0 < 1 < 2 < 3): molecules at 1, 0.5 and 0.1 mg/ml, triclosan at 0.1 mg/ml
Protocol: as §1, §2
(§5) Compounds of the invention were tested on 4 strains of E. coli, 3 strains of K. pneumoniae and 4 strains of S. aureus with the resistance profiles below.

[7] = tested on: K. pneumoniae strains presenting high levels of resistance; assay: Bacterial growth on K. pneumoniae strains presenting high levels of resistance; type: cell-based, Klebsiella pneumoniae; design: key to Effects (0 < 1 < 2 < 3): 0 = no effect; 1 = pure only; 2 = several concs; 3 = strong at each; key to Δ DO: change in optical density measured at 600 nm; settings: for Effects (0 < 1 < 2 < 3): molecules at 1, 0.5 and 0.1 mg/ml, triclosan at 0.1 mg/ml
Protocol: as §1, §2, §5

[8] = tested on: E. coli strains presenting high levels of resistance; assay: Bacterial growth on E. coli strains presenting high levels of resistance; type: cell-based, Escherichia coli; design: key to Effects (0 < 1 < 2 < 3): 0 = no effect; 1 = pure only; 2 = several concs; 3 = strong at each; key to Δ DO: change in optical density measured at 600 nm; settings: for Effects (0 < 1 < 2 < 3): molecules at 1, 0.5 and 0.1 mg/ml, triclosan at 0.1 mg/ml
Protocol: as §1, §2, §5

[9] = tested on: Streptococcus equi subsp zooepidemicus; assay: Bacterial growth screening on wild-type phenotype strain, S. zooepidemicus; type: cell-based
Protocol: as §1, §2, §3, §4

COc1cc(O)c(Br)c(Cl)c1F [sr7615]
Effect level, K. pneumoniae [1]: 2 | Effect level, S. aureus [2]: 3 | Effect level, E. coli [3]: 3 | inhibition at 10 µM ([4]; 10^−5 M): 0% | inhibition at 1 µM ([4]; 10^−6 M): 0% | Effect level, S. maltophila [5]: 2 | Δ DO ([6]; S. aureus Strain 1, 0.1 mg/ml): 0.250 | Δ DO ([6]; S. aureus Strain 1, 0.5 mg/ml): 0.434 | Δ DO ([6]; S. aureus Strain 1, 1 mg/ml): 0.428 | Effects (0 < 1 < 2 < 3) ([6]; S. aureus Strain 1): 3 | Δ DO ([6]; S. aureus Strain 2, 0.1 mg/ml): 0.308 | Δ DO ([6]; S. aureus Strain 2, 0.5 mg/ml): 0.412 | Δ DO ([6]; S. aureus Strain 2, 1 mg/ml): 0.382 | Effects (0 < 1 < 2 < 3) ([6]; S. aureus Strain 2): 3 | Δ DO ([6]; S. aureus Strain 3, 0.1 mg/ml): 0.310 | Δ DO ([6]; S. aureus Strain 3, 0.5 mg/ml): 0.482 | Δ DO ([6]; S. aureus Strain 3, 1 mg/ml): 0.445 | Effects (0 < 1 < 2 < 3) ([6]; S. aureus Strain 3): 3 | Δ DO ([6]; S. aureus Strain 4, 0.1 mg/ml): 0.351 | Δ DO ([6]; S. aureus Strain 4, 0.5 mg/ml): 0.450 | Δ DO ([6]; S. aureus Strain 4, 1 mg/ml): 0.418 | Effects (0 < 1 < 2 < 3) ([6]; S. aureus Strain 4): 3 | Δ DO ([7]; K. pneumoniae Strain 1, 0.1 mg/ml): 0.025 | Δ DO ([7]; K. pneumoniae Strain 1, 0.5 mg/ml): 0.490 | Δ DO ([7]; K. pneumoniae Strain 1, 1 mg/ml): 0.640 | Effects (0 < 1 < 2 < 3) ([7]; K. pneumoniae Strain 1): 2 | Δ DO ([7]; K. pneumoniae Strain 2, 0.1 mg/ml): −0.021 | Δ DO ([7]; K. pneumoniae Strain 2, 0.5 mg/ml): 0.518 | Δ DO ([7]; K. pneumoniae Strain 2, 1 mg/ml): 0.621 | Effects (0 < 1 < 2 < 3) ([7]; K. pneumoniae Strain 2): 2 | Δ DO ([7]; K. pneumoniae Strain 3, 0.1 mg/ml): 0.134 | Δ DO ([7]; K. pneumoniae Strain 3, 0.5 mg/ml): 0.598 | Δ DO ([7]; K. pneumoniae Strain 3, 1 mg/ml): 0.913 | Effects (0 < 1 < 2 < 3) ([7]; K. pneumoniae Strain 3): 2 | Δ DO ([8]; E. coli Strain 1, 0.1 mg/ml): 0.047 | Δ DO ([8]; E. coli Strain 1, 0.5 mg/ml): 0.777 | Δ DO ([8]; E. coli Strain 1, 1 mg/ml): 0.896 | Effects (0 < 1 < 2 < 3) ([8]; E. coli Strain 1): 2 | Δ DO ([8]; E. coli Strain 2, 0.1 mg/ml): 0.080 | Δ DO ([8]; E. coli Strain 2, 0.5 mg/ml): 0.886 | Δ DO ([8]; E. coli Strain 2, 1 mg/ml): 1.082 | Effects (0 < 1 < 2 < 3) ([8]; E. coli Strain 2): 2 | Δ DO ([8]; E. coli Strain 3, 0.1 mg/ml): 0.029 | Δ DO ([8]; E. coli Strain 3, 0.5 mg/ml): 0.526 | Δ DO ([8]; E. coli Strain 3, 1 mg/ml): 0.882 | Effects (0 < 1 < 2 < 3) ([8]; E. coli Strain 3): 2 | Δ DO ([8]; E. coli Strain 4, 0.1 mg/ml): 0.253 | Δ DO ([8]; E. coli Strain 4, 0.5 mg/ml): 0.809 | Δ DO ([8]; E. coli Strain 4, 1 mg/ml): 0.945 | Effects (0 < 1 < 2 < 3) ([8]; E. coli Strain 4): 3 | Effect level, S. zooepidemicus [9]: 3
